# Results: patent US20050222043A1, “Use of proteasome inhibitor in the treatment of fibrotic diseases” (priority 2002, published 2005)
# “Also recorded” adds a separate entry of the source. Peptide text beside a SMILES is read from it. * marks the point of attachment. Cbz = O=C(OCc1ccccc1)*
# How the values were obtained:
# [1] = tested on: collagens Iα1, Iα2 and IIIα1; assay: Real-time PCR of collagen expression (stated jointly) in cardiac fibroblasts; format: cell-based, rat; conditions: primary cardiac fibroblasts, FIG. 2B
# Experimental: (§1) Cardiac fibroblasts were prepared from neonatal Wistar rats by plating the non-myocyte fraction of neonatal hearts. The hearts were removed from neonatal rats being 2-3 days old. Ventricular tissue was treated over night at 4° C. with […] trypsin in Hanks-Balanced Salt Saline (HBSS) (Ca^2+- and Mg^2+-free, Invitrogen™, Karlsruhe, Germany) and with collagenase (0,5 mg per ml) in Leibowitz medium (L-15, Invitrogen™, Karlsruhe, Germany) for 45 minutes at 37° C. After washing, the cells were pre-plated at 37° C. for one hour. The adherent cells predominantly were cardiac fibroblasts, which were then further cultivated under standard conditions in standard M199-medium with 10% new-born calf serum, L-glutamine and penicillin-streptomycin (Invitrogen™, Karlsruhe, Germany). In the experiments, we used sub-cultivated fibroblasts of the passages 3-7.
# (§2) Total RNA was extracted by means of Trizol reagent (Invitrogen™, Karlsruhe, Germany). In the following, the RNA was subjected to reverse transcription (AMF Reverse Transkriptase, Roche Biochemicals, Mannheim, Germany) and treated with DNase (Ambion, Huntington, UK). […] The relative quantification was performed by means to the comparative CT-method as being described by the manufacturer. […]
# [2] = tested on: collagen IIIα1; assay: Real-time PCR of collagen IIIα1 mRNA in cardiac fibroblasts; format: cell-based, rat; conditions: primary cardiac fibroblasts
# Experimental: as §1
# (§3) Total RNA was extracted by means of Trizol reagent (Invitrogen™, Karlsruhe, Germany). In the following, the RNA was subjected to reverse transcription (AMF Reverse Transkriptase, Roche Biochemicals, Mannheim, Germany) and treated with DNase (Ambion, Huntington, UK). […] The relative quantification was performed by means to the comparative CT-method as being described by the manufacturer.
# [3] = tested on: spontaneously hypertensive rats (SH-rats); assay: Left-ventricular pressure parameters in SH-rats; format: in vivo, rat; conditions: 1 mg/kg daily i.p., 12 weeks
# Experimental: (§4) Male SH-rats of the same age were obtained from the Jackson Laboratory, Maine, USA. The animals were maintained according to the international guidelines for the keeping und use of laboratory animals. 6-week-old rats were treated for 12 weeks with MG132 (1 mg per kg body weight), 0,1% DMSO as solvent control or with physiological saline (n=10 per group, daily intraperitoneal injection). The animals were fed with a high salt diet (drinking water with 2% sodium chloride). The blood pressure was measured weekly by means of the standard tail-cuff method. The blood values and the standard laboratory markers of the renal and hepatic functions were determined 6 weeks after the treatment and at the end of the study by means of standard methods. At the end of the study, the animals were anaesthetised by means of an intraperitoneal injection of a 20% urethane solution (0,9 g per kg body weight) and the left-ventricular pressure parameters were determined as being described by Saragoca, M. et al. (1981) Hypertension, 3, 380-385. The organs were withdrawn, weighed and either shock-frozen in liquid nitrogen or embedded in paraffin for the histological analysis. Since no difference was observed between the DMSO-treated and the salt-treated SH-rats in respect to the above mentioned parameters, the DMSO-treated animals served as a control for the MG132-treatment.
# (§5) The data was determined in the form of mean values ±S.E.M., if not otherwise indicated. The significance of the differences in the left-ventricular pressure parameters and in the quantification of the heart fibrosis was determined according to Student's T-test. For the cell proliferation test, the significance was determined by comparing the regression coefficients of MG132 in relation to the control group. An error probability of p<0,05 was considered as being significant. The software SPSS 9.0 was used for all statistical calculations.
# [4] = tested on: NFκB; assay: Band shift analysis for active NFκB in nuclear extracts of cardiac fibroblasts; format: cell-based, rat; conditions: 0,5 μM with IL-1β; not less than 6 hours
# Experimental: This was additionally confirmed in band shift analyses with oligonucleotides comprising a NFκB-DNA binding site. For this test, nuclear extracts from cardiac fibroblasts were prepared, which were treated with 0,5 μM MG132 or, respectively, with DMSO (solvent control) in a time course in the presence or absence of IL-1β.
# [5] = tested on: collagen Iα2; assay: Real-time PCR of collagen Iα2 mRNA in cardiac fibroblasts; format: cell-based, rat; conditions: primary cardiac fibroblasts
# Experimental: as §1, §3
# [6] = tested on: spontaneously hypertensive rats (SH-rats); assay: Animal study: tolerability, blood pressure, weights, blood values in SH-rats; format: in vivo, rat
# Experimental: as §4
# [7] = tested on: cardiac fibroblasts; assay: Proliferation test (trypanblue exclusion cell counting); format: cell-based, rat; conditions: 0,1 and 1 μM, 10% serum, counted daily for 7 days
# Experimental: Cardiac fibroblasts were prepared from neonatal Wistar rats by plating the non-myocyte fraction of neonatal hearts. The hearts were removed from neonatal rats being 2-3 days old. Ventricular tissue was treated over night at 4° C. with […] trypsin in Hanks-Balanced Salt Saline (HBSS) (Ca^2+- and Mg^2+-free, Invitrogen™, Karlsruhe, Germany) and with collagenase (0,5 mg per ml) in Leibowitz medium (L-15, Invitrogen™, Karlsruhe, Germany) for 45 minutes at 37° C. After washing, the cells were pre-plated at 37° C. for one hour. […]
# MG132, ALLM and MG262 were purchased at Calbiochem® (San Diego, Calif., USA) and provided as 10 mM DMSO stock solutions. […] The proliferation was determined by counting the living cells in triplicate in daily intervals by means of the trypanblue exclusion test. […]
# as §5, with “An error probability of p<0,05 was considered as being significant. The software SPSS 9.0 was used for all statistical calculations.” left out
# [8] = tested on: collagen Iα1; assay: Real-time PCR of collagen Iα1 mRNA in cardiac fibroblasts; format: cell-based, rat; conditions: primary cardiac fibroblasts
# Experimental: as §1, §3
# [9] = tested on: spontaneously hypertensive rats (SH-rats); assay: Histological determination of cardiac fibrosis (quantitative morphometry of siriusred-stained left-ventricular sections) in SH-rats; format: in vivo, rat; conditions: MG132-treated, FIG. 1B
# Experimental: For the pathohistological evaluation, the rat hearts were embedded into paraffin, cut into sections having a thickness of 3 μm, subjected to a haematoxylin-eosin and siriusred staining and analysed as being described in Hocher, B. et al., (1999), Hypertension, 3, 816-822. The degree of heart fibrosis was evaluated by means of quantitative morphometry of the siriusred-stained sections with an image analysis system (Quantimed 500, Image 1.61 program). In this analysis, the ratio of the red-stained tissue (connective tissue) and the total tissue of the section was determined.
# Male SH-rats of the same age were obtained from the Jackson Laboratory, Maine, USA. […] The blood pressure was measured weekly by means of the standard tail-cuff method. The blood values and the standard laboratory markers of the renal and hepatic functions were determined 6 weeks after the treatment and at the end of the study by means of standard methods. At the end of the study, the animals were anaesthetised by means of an intraperitoneal injection of a 20% urethane solution (0,9 g per kg body weight) and the left-ventricular pressure parameters were determined as being described by Saragoca, M. et al. (1981) Hypertension, 3, 380-385. […]
# The data was determined in the form of mean values ±S.E.M., if not otherwise indicated. […]
# [10] = tested on: MMP2 and MMP9; assay: Real-time PCR of MMP expression in cardiac fibroblasts; format: cell-based, rat; conditions: FIG. 4A
# Experimental: as §1, §2
SMILES,effect on collagen expression [1],expression of collagen IIIα1 (in words) ([2]; FIG. 2B),down-regulation / inhibition of collagen IIIα1 RNA expression ([2]; dose-dependent),LVEDP compared with control (in words) ([3]; 1 mg/kg),dp/dtmax compared with control (in words) ([3]; 1 mg/kg),left-ventricular end-diastolic (filling) pressure LVEDP ([3]; mean ± S.E.M.) [mm Hg],maximal pressure drop rate dp/dtmin ([3]; mean ± S.E.M.) [mm Hg/s],effect on IL-1β-induced NFκB activation (band shift) [4],expression of collagen Iα2 (in words) ([5]; FIG. 2B),down-regulation / inhibition of collagen Iα2 RNA expression ([5]; dose-dependent),"tolerability of long-term treatment ([6]; SH-rats, 1 mg per kg daily, 12 weeks)","Body Weight ([6]; SH-rats, 1 mg/kg MG132) [g]",differential blood picture and laboratory markers of kidney or liver side effects ([6]; blood samples after 6 weeks and at end of study),inhibition of proliferation / growth of cardiac fibroblasts [7],expression of collagen Iα1 [8],cardiac fibrosis in heart section (in words) [9],expression of MMP2 and MMP9 under co-stimulation with IL-1β [10]
CC(C)C[C@H](NC(=O)[C@H](CC(C)C)NC(=O)[C@H](CC(C)C)NC(=O)OCc1ccccc1)B(O)O [MG262],inhibited the collagen expression in a comparably effective manner,,,,,,,,,,,,,,,,
CSCC[C@@H](C=O)NC(=O)[C@H](CC(C)C)NC(=O)[C@H](CC(C)C)NC(C)=O [ALLM] (Ac-Leu-Leu-Met-aldehyde),no effects,,,,,,,,,,,,,,,,
"CC(C)C[C@@H](C=O)NC(=O)[C@H](CC(C)C)NC(=O)[C@H](CC(C)C)NC(=O)OCc1ccccc1 [MG132, Z-Leu-Leu-Leu-al] (Cbz-Leu-Leu-Leu-aldehyde)",,dose-dependent and dramatic reduction,up to 91%,remarkably reduced pressure level; also recorded: significantly lower,significantly higher; also recorded: more than twice higher,5±3,−5046±726,small inhibitory effect,dose-dependent and dramatic reduction,up to 73%,very well tolerated; also recorded: in general well tolerated,280 ± 15.3,neither changes in the differential blood picture nor a change in the laboratory markers,dose-dependent inhibition of proliferation,unaffected,significantly reduced cardiac fibrosis,surprisingly strong reduction
